The values that follow are results of earlier work, collected in publication PMC5601361, “Targeting the Receptor for Advanced Glycation Endproducts (RAGE): A Medicinal Chemistry Perspective” (Journal of Medicinal Chemistry, 2017).

One may read the Kd as the concentration at which binding is half-saturated. Usually IC50 stands for the concentration that inhibits the measured activity by half.

Series [1] relates to LLC and B16 melanoma cells. The arrangement: method as in PMID 22493510, PMID 21347371. The following applies: single preadministration.
Series [2] has as its target human RAGE. The arrangement: method as in PMID 22493510, PMID 21347371. The conditions noted are these: SPR on human RAGE.
Series [3] has as its system RAGE-overexpressing SH-SY5Y cells.
Another series relates to Aβ. The arrangement: method as in PMID 26899576. The conditions noted are these: 50 μM.
A further series relates to diabetic mice. The arrangement: method as in PMID 18245563, PMID 26807573, PMID 14568011.
In another series the test system is rats. The arrangement: method as in PMID 25757085, PMID 20223279.
On the set-up of series [4]: method as in PMID 26771209.
In a further series the test system is human brain tissue. The arrangement: method as in PMID 26771209.
Details of series [5]: method as in PMID 26771209. The source holds these as a separate data set.
The next series deals with rat and mouse sRAGE. The arrangement: method as in PMID 7592757. The following applies: VC1C2.
Series [6] deals with sRAGE.
The subject of a further series is C6 glioma cells. The arrangement: method as in PMID 22742537. The following applies: in vitro; 3 at 10 μM.
The target of series [7] is human RAGE. The arrangement: method as in PMID 22742537, PMID 24727489. The conditions noted are these: SPR.
Another series deals with wild-type mice. The arrangement: method as in PMID 22742537, PMID 24727489. The following applies: given prior to human Aβ administration, 3 ip, 7 iv 25 mg/kg.
For a further series, the system named is human RAGE-Aβ1–42. The following applies: ELISA on human RAGE-Aβ1–42; for inhibitory activity compared with another compound: at 20 μM.
Series [8] deals with immune-deficient mice implanted with cancer cells. The arrangement: method as in PMID 22718861. The conditions noted are these: ip delivery.
The subject of series [9] is pancreatic cancer cell lines. The arrangement: method as in PMID 22718861. The following applies: several cancer cell lines.
The test system of another series is tumor cell. The arrangement: method as in PMID 23421467. The following applies: in vitro and in vivo.
Series [10] deals with human sRAGE. The arrangement: method as in PMID 24824951. The following applies: V domain; read-out: affinity for RAGE (Kd).
On the set-up of series [11]: method as in PMID 25533401.
Series [12] deals with human sRAGE. The arrangement: method as in PMID 22406537. The following applies: V domain, read-out: affinity for RAGE (Kd).
Series [13] has as its system sRAGE. The source holds these as a separate data set.
Series [14] relates to RAGE-transfected CHO cells.
In the next series the test system is aortas of aged rats. The arrangement: method as in PMID 25160740.
In series [15] the test system is Wistar rats treated with AGEs. The arrangement: method as in PMID 26738988. The following applies: ip 1 mg/kg/day for 4 weeks.
Setting [16] is: read-out: IC50, interaction of sRAGE to CML.
Setting [17] is: read-out: IC50, interaction of sRAGE to S110B.
[18] abbreviates: read-out: IC50, interaction of sRAGE to amyloid β.

Entries after “also recorded” stand apart in the source; their conditions may differ. Read-outs that look alike come from different tables or passages of the source. Bounds are passed on as bounds.

Take chondroitin sulfate E [Compound 15]: the “lung colonization by tumor cells” value in series [1] was “suppressed”. The Kd on human RAGE [2] was 0.2 nM.

heparan sulfate [Compound 16]: in series [1], the “lung colonization by tumor cells” value is on record as “suppressed”. The dissociation constant (Kd) at human RAGE [2] was 0.6 nM.

On to `O=C1CCC[C@@H]2[C@H]3CCCN4CCC[C@@H](CN12)[C@@H]34` [Compound 14, matrine, reference compound], for which, in the series on APPswe/PS1 mice (ip 100 mg/kg), the “brain Aβ, NF-κB, BACE1 levels” value was “reduces”; the “proinflammatory cytokines (TNF-α and IL-1β)” value was “downregulates”. Moreover, the “transport across the BBB” value in the series with APPswe/PS1 mice (ip 100 mg/kg, AD transgenic mice) was “is transported across the BBB”. For the same compound, the Aβ-induced cytotoxicity entry in [3] is recorded as “inhibits Aβ-induced cytotoxicity”. Moreover, in series [3] (50 μM), the “RAGE-Aβ signaling pathway (NF-κB and BACE1 expression levels)” value is “decrease of NF-κB and BACE1 expression levels”. In addition, the “Aβ1–42, NF-κB, BACE1 and cytokines” value in [3] (in vitro and in vivo) is “• reduced Aβ1–42, NF-κB, BACE1 and cytokines (in vitro and in vivo)”. Besides, in the series on Aβ, the “Aβ aggregation or fibrillation” value was “prevents Aβ aggregation or fibrillation”.

For the compound `C[C@H](CCC(=O)O)[C@H]1CC[C@H]2[C@@H]3[C@@H](O)C[C@@H]4C[C@H](O)CC[C@]4(C)[C@H]3CC[C@]12C` [ursodeoxycholic acid], in the series on diabetic mice, the antiatherogenic activity entry is recorded as “antiatherogenic activity”.

Take `O=C(O)c1cccnc1C(=O)O` [quinolinic acid]: in the series on rats, the “neuronal death in the striatum” value was “dose-dependent neuronal death in the striatum”.

As to `O=C(c1ccc([18F])cc1)N(Cc1ccccc1)C1CCCCC1` [[^18F]13], in series [4], the “time of peak after iv injection” value is not above 3 min and the “washout over the PET scan” value is given as “virtually complete washout”. For the same compound, in series [4] (iv injection), the “nonspecific binding in vivo” value is on record as “significant nonspecific binding to the white matter”. In addition, the “uptake in frontal cortex of AD compared with healthy control tissue” value in the series on human brain tissue was “higher uptake”. In series [5], the “metabolism in rat liver microsomes” value is recorded as “rapidly metabolized”.

With “HMGB1 (amphoterin): high mobility group box 1, cytokine-type RAGE ligand”, the “affinity for RAGE (Kd)” value at rat and mouse sRAGE was “low nanomolar range”. Moreover, on rat and mouse sRAGE (read-out: affinity for RAGE (Kd)), the Kd is 6 to 10 nM.

As to `CCCCOc1cc(OCCCN(CC)CC)ccc1NC(=O)C(CC1CCN(Cc2ccccc2)CC1)NC(=O)OCC1c2ccccc2-c2ccccc21` (stereo not drawn) [Compound 10], the concentration for half-maximal inhibition (IC50) in the series on sRAGE [6] (setting [16]), in the series on sRAGE [6] (setting [17]) and with sRAGE [6] (setting [18]) was less than 500 nM in each case.

As for `CCN(CC)CCOc1cccc(Nc2nc(-c3ccc(Cl)cc3)cc(-c3ccc(Cl)cc3)n2)c1` [Compound 3], the “concentration of toxic soluble Aβ in the brain” value in the series with APPswe/PS1 mice (oral 50 mg/kg per day for up to three months) is on record as “significantly lowered”. The “Aβ-induced NF-κB signaling” value in the series on C6 glioma cells is listed as “down-regulation; also recorded: • downregulation of Aβ-induced NF-κB (in vitro)”. Further, the Kd at human RAGE [7] is 102000 nM. In addition, the “Aβ brain entry / accumulation in the brain” value (“Aβ brain entry / accumulation” for short) in the series with wild-type mice (25 mg/kg) is “inhibited Aβ brain entry; also recorded: • inhibition of Aβ accumulation in the brain (in vivo)”. In addition, the IC50 in the series with human RAGE-Aβ1–42 was 16500 nM.

Regarding `CCN(CC)CCOc1ccc(OC)cc1NC(=O)c1nc(-c2ccc(F)cc2)cc(-c2ccc(F)cc2)n1` [Compound 6], in the series on human RAGE-Aβ1–42, the “inhibitory activity compared with another compound” value is given as “superior RAGE inhibition than 3”.

For the compound “ELKVLMEKEL [Compound 19, RAGE antagonistic peptide developed from the structure of S100P]”, the “tumor growth, metastasis and inflammation” value in series [8] was “reduction of tumor growth, metastasis, and inflammation”. The “RAGE activation of NF-κB, inflammation, tumor growth and metastasis” value in series [9] is “reduced; also recorded: inhibition of NF-κB, inflammation, tumor growth and metastasis”.

For the compound heparin [Compound 17], the Kd at human RAGE [2] is 3.1 nM. The “tumor cell growth, migration, invasion and distant metastasis” value in the series on tumor cell is “inhibited tumor cell growth, migration, invasion, and distant metastasis”.

With `CC1NC(NCCC[C@H](N)C(=O)O)=NC1=O` (stereo partly drawn) [MG-H1, methylglyoxal-derived hydroimidazolone-1], the Kd on human sRAGE [10] was 40 nM.

For `CN(C)C1CCN(CCOc2cccc(Nc3nc(-c4ccc(Cl)cc4)cc(-c4ccc(Cl)cc4)n3)c2)C1` (stereo not drawn) [Compound 5], the “solubility compared to 3” value in [11] is given as “improved”. In addition, in the series on human RAGE-Aβ1–42, the “inhibitory activity compared with another compound” value is recorded as “improved RAGE-Aβ1–42 inhibition”.

For `CCCCn1c([C@@H](Cc2ccc(OCCc3ccc(Cl)cc3)cc2)NC(=O)OC(C)(C)C)nc2cc(OCCCN(CC)CC)ccc21` [Compound 11], the IC50 with sRAGE [6] (setting [16]), in the series with sRAGE [6] (setting [17]) and in the series on sRAGE [6] (setting [18]) was less than 500 nM throughout.

Regarding “methylglyoxal-derived hydroimidazolones [MG-H]”, at human sRAGE [10], the Kd is 30 to 40 nM.

Turning to “β amyloid: β amyloid peptide, RAGE ligand”, the results for the Kd on human sRAGE [12] (listed as 125I-labeled Aβ1–40) and on human sRAGE [12] were 75 nM and 70 to 80 nM, respectively.

On to `CCN(CC)CCOc1ccccc1Nc1nc(-c2ccc(Cl)cc2)cc(-c2ccc(Cl)cc2)n1` [Compound 4], for which, in the series with C6 glioma cells, the “Aβ-induced NF-κB signaling” value is recorded as “• downregulation of Aβ-induced NF-κB (in vitro)”. Also, the “Aβ brain entry / accumulation” value with wild-type mice was “• inhibition of Aβ accumulation in the brain (in vivo)”. The IC50 in the series on human RAGE-Aβ1–42 was 4600 nM.

`O=C(c1ccc(Cl)cc1)N(Cc1ccccc1)C1CCCCC1` [Compound 12, N-Benzyl-N-cyclohexyl-4-chlorobenzamide]: the BBB permeability result was “acceptable BBB permeability”. Further, the “binding to immobilized Aβ” value in the series with sRAGE [13] is “did not bind”. Besides, the “Aβ1–40, Aβ1–42, S100B, HMGB1 binding to RAGE” value in the series with sRAGE [13] (in vitro) was “• inhibited Aβ1–40, Aβ1–42, S100B, HMGB1 binding to RAGE (in vitro)”. Besides, the “toxicity in RAGE-transfected CHO cells” value in series [14] (10 μM) is on record as “nontoxic”. Moreover, the “cytotoxicity / toxicology profile in vitro and in vivo” value in [14] (cell culture and rodents) is “good toxicology profile; also recorded: • low cytotoxicity in vitro and in vivo”. Besides, in series [14] (in vitro and in vivo), the “Aβ1–40-induced NF-κB activation, BACE1 expression, cytokines” value was “• reduced Aβ1–40-induced NF-κB activation, BACE1 expression, cytokines (in vitro and in vivo)”. Moreover, in [14] (induced by Aβ1–40 and Aβ1–42), the “RAGE-mediated cellular oxidative stress, BACE1 mRNA, BACE1 activity, nuclear NF-κB levels” value was “reduced”. In the series with aortas of aged rats, the GSH/GSSG ratio entry is given as “increased”; the “malondialdehyde and ROS production” value is “reduced”. Moreover, in series [15], the “Aβ expression and APP production, NF-κB-mediated Aβ production, inflammatory response, ROS and lipid peroxidation” value is reported as “reduction”; the antioxidant enzyme activity entry is “increased”. Further, in the series with APPsw/0 mice, the “Aβ1–40 and Aβ1–42 levels in brain (cortex, hippocampus)” value is “reducing their levels in the cortex and the hippocampus; also recorded: • reduced Aβ1–40 and Aβ1–42 levels in brain”; the “RAGE actions at the BBB and in the brain” value was “• blocked RAGE actions at the BBB and in the brain”; the “RAGE-mediated influx of circulating Aβ1–40 and Aβ1–42 into the brain” value is “inhibited; also recorded: • inhibition of Aβ influx in the brain (in vivo)”; the “binding specificity in the CNS” value is “bound exclusively to RAGE”. In addition, the “neuronal oxidative stress, microglia activation, neuroinflammation” value in the series on APPsw/0 mice is “reduced Aβ-induced RAGE-dependent oxidative stress in neurons, suppressed microglia activation, and neuroinflammation”. The “cognitive performance and cerebral blood flow” value in the series on APPsw/0 mice (aged APPsw/0 mice) is “• normalized cognitive performance and cerebral blood flow in aged APPsw/0 mice”. Moreover, in the series with APPsw/0 mice (ip 1 mg/kg daily for 2 months), the “soluble APP β protein, p65, NF-κB and BACE1 mRNA levels in cortex and hippocampus” value is “reduced”. Moreover, the dose not toxic entry with APPsw/0 mice (ip, 15–17-month-old APPsw/0 mice) was “up to 500 mg/kg”.

Consider `CCCCOc1cc(OCCCN(CC)CC)ccc1NC(=O)c1cc(-c2ccc(Oc3ccc(F)cc3)cc2)nn1C` [Compound 7], for which the Kd on human RAGE [7] is 43400 nM. For the same compound, the “Aβ brain entry / accumulation” value in the series with wild-type mice is listed as “reduce Aβ entry in the brain”.
